Test results as given in PubChem BioAssay (NCI).
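A five-concentration, 48-hour dose response in 96-well plates underlies each endpoint, interpolated linearly between surrounding concentrations. At the GI50, growth is halved. TGI: total growth inhibition.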

How the values were obtained:
Test in all cases: inhibition of tumour cell growth, NCI panel, 48 h; in the data active means GI50 below about 0.43 µM; inactive means the rest
HL-60(TB) leukemia = tested on: HL-60(TB) leukemia
KM12 colon = tested on: KM12 colon
LOX IMVI melanoma = tested on: LOX IMVI melanoma
SR leukemia = tested on: SR leukemia
TK-10 renal = tested on: TK-10 renal
DU-145 prostate = tested on: DU-145 prostate
HS 578T breast = tested on: HS 578T breast
UACC-257 melanoma = tested on: UACC-257 melanoma
MDA-MB-435 = tested on: MDA-MB-435
A498 renal = tested on: A498 renal
OVCAR-4 ovarian = tested on: OVCAR-4 ovarian
COLO 205 colon = tested on: COLO 205 colon
SN12C renal = tested on: SN12C renal
M14 melanoma = tested on: M14 melanoma
786-0 renal = tested on: 786-0 renal
SNB-75 CNS = tested on: SNB-75 CNS
IGROV1 ovarian = tested on: IGROV1 ovarian
UACC-62 melanoma = tested on: UACC-62 melanoma
ACHN renal = tested on: ACHN renal
SF-539 CNS = tested on: SF-539 CNS
HCT-15 colon = tested on: HCT-15 colon
HOP-62 NSCLC = tested on: HOP-62 NSCLC
MCF7 breast = tested on: MCF7 breast
CCRF-CEM leukemia = tested on: CCRF-CEM leukemia
EKVX NSCLC = tested on: EKVX NSCLC
RPMI-8226 leukemia = tested on: RPMI-8226 leukemia
NCI-H522 lung = tested on: NCI-H522 lung
NCI-H226 lung = tested on: NCI-H226 lung
SK-MEL-5 melanoma = tested on: SK-MEL-5 melanoma
SK-MEL-28 melanoma = tested on: SK-MEL-28 melanoma
K-562 leukemia = tested on: K-562 leukemia
SK-MEL-2 melanoma = tested on: SK-MEL-2 melanoma
HT29 colon = tested on: HT29 colon
MOLT-4 leukemia = tested on: MOLT-4 leukemia
SK-OV-3 ovarian = tested on: SK-OV-3 ovarian
CAKI-1 renal = tested on: CAKI-1 renal
A549 NSCLC = tested on: A549 NSCLC
T-47D breast = tested on: T-47D breast
NCI-H460 lung = tested on: NCI-H460 lung
SF-268 CNS = tested on: SF-268 CNS
MALME-3M melanoma = tested on: MALME-3M melanoma
NCI/ADR-RES ovarian = tested on: NCI/ADR-RES ovarian
OVCAR-8 ovarian = tested on: OVCAR-8 ovarian
U251 CNS = tested on: U251 CNS
NCI-H23 lung = tested on: NCI-H23 lung
SW-620 colon = tested on: SW-620 colon
HOP-92 NSCLC = tested on: HOP-92 NSCLC
PC-3 prostate = tested on: PC-3 prostate
UO-31 renal = tested on: UO-31 renal
MDA-MB-231 breast = tested on: MDA-MB-231 breast
SF-295 CNS = tested on: SF-295 CNS
OVCAR-5 ovarian = tested on: OVCAR-5 ovarian
HCT-116 colon = tested on: HCT-116 colon
HCC-2998 colon = tested on: HCC-2998 colon
OVCAR-3 ovarian = tested on: OVCAR-3 ovarian
SNB-19 CNS = tested on: SNB-19 CNS
RXF 393 renal = tested on: RXF 393 renal
BT-549 breast = tested on: BT-549 breast

Fc1ccc(-c2nn3ccccc3c2-c2ccncc2)cc1
> 25 µM: TGI (HL-60(TB) leukemia) | TGI (KM12 colon) | TGI (LOX IMVI melanoma) | TGI (SR leukemia) | TGI (TK-10 renal) | TGI (DU-145 prostate) | TGI (HS 578T breast) | TGI (UACC-257 melanoma) | TGI (MDA-MB-435) | TGI (A498 renal) | TGI (OVCAR-4 ovarian) | TGI (COLO 205 colon) | TGI (SN12C renal) | TGI (M14 melanoma) | TGI (786-0 renal) | TGI (SNB-75 CNS) | TGI (IGROV1 ovarian) | TGI (UACC-62 melanoma) | TGI (ACHN renal) | TGI (SF-539 CNS) | TGI (HCT-15 colon) | TGI (HOP-62 NSCLC) | TGI (MCF7 breast) | TGI (CCRF-CEM leukemia) | TGI (EKVX NSCLC) | TGI (RPMI-8226 leukemia) | TGI (NCI-H522 lung) | TGI (NCI-H226 lung) | TGI (SK-MEL-5 melanoma) | TGI (SK-MEL-28 melanoma) | TGI (K-562 leukemia) | TGI (SK-MEL-2 melanoma) | TGI (HT29 colon) | TGI (MOLT-4 leukemia) | TGI (SK-OV-3 ovarian) | TGI (CAKI-1 renal) | TGI (A549 NSCLC) | TGI (T-47D breast) | TGI (NCI-H460 lung) | TGI (SF-268 CNS) | TGI (MALME-3M melanoma) | TGI (NCI/ADR-RES ovarian) | TGI (OVCAR-8 ovarian) | TGI (U251 CNS) | TGI (NCI-H23 lung) | TGI (SW-620 colon) | TGI (HOP-92 NSCLC) | TGI (PC-3 prostate) | TGI (UO-31 renal) | TGI (MDA-MB-231 breast) | TGI (SF-295 CNS) | TGI (OVCAR-5 ovarian) | TGI (HCT-116 colon) | TGI (HCC-2998 colon) | TGI (OVCAR-3 ovarian) | TGI (SNB-19 CNS) | TGI (RXF 393 renal) | TGI (BT-549 breast)
inactive: GI50 (HL-60(TB) leukemia) > 25 µM | GI50 (KM12 colon) > 25 µM | GI50 (LOX IMVI melanoma) > 25 µM | GI50 (SR leukemia) > 25 µM | GI50 (TK-10 renal) 12 µM | GI50 (DU-145 prostate) > 25 µM | GI50 (HS 578T breast) > 25 µM | GI50 (UACC-257 melanoma) > 25 µM | GI50 (MDA-MB-435) > 25 µM | GI50 (A498 renal) > 18.3 µM | GI50 (OVCAR-4 ovarian) > 25 µM | GI50 (COLO 205 colon) > 25 µM | GI50 (SN12C renal) > 25 µM | GI50 (M14 melanoma) > 25 µM | GI50 (786-0 renal) > 25 µM | GI50 (SNB-75 CNS) > 19.7 µM | GI50 (IGROV1 ovarian) 12.9 µM | GI50 (UACC-62 melanoma) > 18.9 µM | GI50 (ACHN renal) 12.1 µM | GI50 (SF-539 CNS) > 25 µM | GI50 (HCT-15 colon) > 25 µM | GI50 (HOP-62 NSCLC) > 25 µM | GI50 (MCF7 breast) > 23.1 µM | GI50 (CCRF-CEM leukemia) > 25 µM | GI50 (EKVX NSCLC) > 20.2 µM | GI50 (RPMI-8226 leukemia) > 25 µM | GI50 (NCI-H522 lung) > 19.8 µM | GI50 (NCI-H226 lung) > 25 µM | GI50 (SK-MEL-5 melanoma) > 22.8 µM | GI50 (SK-MEL-28 melanoma) > 25 µM | GI50 (K-562 leukemia) > 25 µM | GI50 (SK-MEL-2 melanoma) > 25 µM | GI50 (HT29 colon) 14 µM | GI50 (MOLT-4 leukemia) > 25 µM | GI50 (SK-OV-3 ovarian) > 25 µM | GI50 (CAKI-1 renal) 11.8 µM | GI50 (A549 NSCLC) > 25 µM | GI50 (T-47D breast) > 21 µM | GI50 (NCI-H460 lung) > 25 µM | GI50 (SF-268 CNS) > 25 µM | GI50 (MALME-3M melanoma) > 25 µM | GI50 (NCI/ADR-RES ovarian) > 25 µM | GI50 (OVCAR-8 ovarian) > 25 µM | GI50 (U251 CNS) > 25 µM | GI50 (NCI-H23 lung) > 25 µM | GI50 (SW-620 colon) > 25 µM | GI50 (HOP-92 NSCLC) 4.53 µM | GI50 (PC-3 prostate) > 25 µM | GI50 (UO-31 renal) 8.26 µM | GI50 (MDA-MB-231 breast) > 25 µM | GI50 (SF-295 CNS) > 25 µM | GI50 (OVCAR-5 ovarian) > 25 µM | GI50 (HCT-116 colon) > 25 µM | GI50 (HCC-2998 colon) > 25 µM | GI50 (OVCAR-3 ovarian) > 25 µM | GI50 (SNB-19 CNS) > 25 µM | GI50 (RXF 393 renal) > 25 µM | GI50 (BT-549 breast) > 25 µM
